From ChEMBL document CHEMBL1201862, “PubChem BioAssay data set” (2004)
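Growth conditions: 96-well plates. Treatment: test compound, 48 hours, 5 concentrations. Analysis: linear interpolation between bracketing concentrations; unreached endpoints set to highest concentration. GI50 is the concentration that inhibits growth by half.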 The source made the active and inactive calls. Rule as the data show it: active = GI50 up to about 1.1 µM and inactive = higher.

What was measured:
Assay in all cases: NCI-60 cell line screen, 48 h
[1] = tested on: COLO 205
[2] = tested on: K562
[3] = tested on: SNB-75
[4] = tested on: MOLT-4
[5] = tested on: SF-295
[6] = tested on: CCRF-CEM
[7] = tested on: OVCAR-4
[8] = tested on: SN12C
[9] = tested on: NCI-H522
[10] = tested on: CAKI-1
[11] = tested on: DMS-273
[12] = tested on: OVCAR-3
[13] = tested on: SR
[14] = tested on: UO-31
[15] = tested on: LXFL 529
[16] = tested on: OVCAR-8
[17] = tested on: MDA-MB-231
[18] = tested on: NCI/ADR-RES
[19] = tested on: BT-549
[20] = tested on: T47D

## Oc1ccc2c(c1)OCC1(O)Cc3cc(O)c(O)cc3C21 (stereo unspecified)
[1]
  GI50: 16.8 µM (inactive)
[2]
  GI50: 27.7 µM (inactive)
[3]
  GI50: 24.3 µM (inactive)
[4]
  GI50: 24.4 µM (inactive)
[5]
  GI50: > 55.5 µM (inactive)
[6]
  GI50: 29.7 µM (inactive)
[7]
  GI50: 19.1 µM (inactive)
[8]
  GI50: 21.8 µM (inactive)
[9]
  GI50: 21.3 µM (inactive)
[10]
  GI50: 18.1 µM (inactive)
[11]
  GI50: 35.8 µM (inactive)
[12]
  GI50: 16.2 µM (inactive)
[13]
  GI50: 30.8 µM (inactive)
[14]
  GI50: 60.1 µM (inactive)
[15]
  GI50: 18.5 µM (inactive)
[16]
  GI50: 21.9 µM (inactive)

## Nc1ccccc1C(=O)/C=C/c1c(O)ccc2ccccc12
[1]
  GI50: > 100 µM (inactive)
[2]
  GI50: > 100 µM (inactive)
[3]
  GI50: > 100 µM (inactive)
[4]
  GI50: > 100 µM (inactive)
[5]
  GI50: > 100 µM (inactive)
[6]
  GI50: > 100 µM (inactive)
[7]
  GI50: > 100 µM (inactive)
[8]
  GI50: 32.7 µM (inactive)
[9]
  GI50: > 100 µM (inactive)
[10]
  GI50: > 100 µM (inactive)
[11]
  GI50: > 100 µM (inactive)
[12]
  GI50: > 100 µM (inactive)
[13]
  GI50: > 100 µM (inactive)
[14]
  GI50: > 100 µM (inactive)
[15]
  GI50: > 100 µM (inactive)
[16]
  GI50: > 100 µM (inactive)

## O=C(CC1(O)C(=O)Nc2c(Cl)ccc(Cl)c21)c1ccco1 (stereo unspecified)
[1]
  GI50: 17.5 µM (inactive)
[2]
  GI50: > 10 µM (inactive)
[3]
  GI50: 27 µM (inactive)
[4]
  GI50: 24.9 µM (inactive)
[5]
  GI50: 20.1 µM (inactive)
[17]
  GI50: 25.5 µM (inactive)
[6]
  GI50: 5.09 µM (inactive)
[18]
  GI50: 23.7 µM (inactive)
[7]
  GI50: 7.06 µM (inactive)
[8]
  GI50: 17.3 µM (inactive)
[9]
  GI50: 44.3 µM (inactive)
[10]
  GI50: 26.1 µM (inactive)
[11]
  GI50: 34.6 µM (inactive)
[19]
  GI50: 36.5 µM (inactive)
[12]
  GI50: 13.5 µM (inactive)
[20]
  GI50: 35.6 µM (inactive)
[13]
  GI50: 4.38 µM (inactive)
[14]
  GI50: 35.8 µM (inactive)
[15]
  GI50: 14 µM (inactive)
[16]
  GI50: 27.2 µM (inactive)

## C[N+](C)(C)CC(=O)NC(=O)N/N=C\C(CC#N)CN(Cc1ccccc1)Cc1ccccc1 (stereo unspecified)
[1]
  GI50: > 100 µM (inactive)
[2]
  GI50: > 100 µM (inactive)
[3]
  GI50: > 100 µM (inactive)
[4]
  GI50: > 100 µM (inactive)
[5]
  GI50: 38 µM (inactive)
[6]
  GI50: > 100 µM (inactive)
[7]
  GI50: > 100 µM (inactive)
[8]
  GI50: > 100 µM (inactive)
[9]
  GI50: > 100 µM (inactive)
[10]
  GI50: > 100 µM (inactive)
[11]
  GI50: > 100 µM (inactive)
[12]
  GI50: > 100 µM (inactive)
[13]
  GI50: > 100 µM (inactive)
[14]
  GI50: > 100 µM (inactive)
[15]
  GI50: > 100 µM (inactive)
[16]
  GI50: > 100 µM (inactive)

## COC(=O)C1C=CCON2CCc3c(n(S(=O)(=O)c4ccccc4)c4ccccc34)C12 (stereo unspecified)
[1]
  GI50: 33.5 µM (inactive)
[2]
  GI50: 17.9 µM (inactive)
[3]
  GI50: 79.3 µM (inactive)
[4]
  GI50: 26.9 µM (inactive)
[5]
  GI50: 59.4 µM (inactive)
[6]
  GI50: 32.5 µM (inactive)
[7]
  GI50: > 31.6 µM (inactive)
[8]
  GI50: 60 µM (inactive)
[9]
  GI50: 26.9 µM (inactive)
[10]
  GI50: 57.3 µM (inactive)
[11]
  GI50: 48.8 µM (inactive)
[12]
  GI50: 33.7 µM (inactive)
[13]
  GI50: 34.1 µM (inactive)
[14]
  GI50: 42.9 µM (inactive)
[15]
  GI50: 73.8 µM (inactive)
[16]
  GI50: 50.9 µM (inactive)

## COc1cc2c(c(O)c1O)-c1ccc(OC)c(=O)cc1C(NC(C)=O)CC2 (stereo unspecified)
[1]
  GI50: 3.87 µM (inactive)
[2]
  GI50: 3.64 µM (inactive)
[3]
  GI50: 2.57 µM (inactive)
[4]
  GI50: 5.5 µM (inactive)
[5]
  GI50: 12.5 µM (inactive)
[6]
  GI50: 3.49 µM (inactive)
[7]
  GI50: 27.5 µM (inactive)
[8]
  GI50: 12.8 µM (inactive)
[9]
  GI50: 2.42 µM (inactive)
[10]
  GI50: 78.5 µM (inactive)
[11]
  GI50: 5.07 µM (inactive)
[12]
  GI50: 2.4 µM (inactive)
[13]
  GI50: 5.69 µM (inactive)
[14]
  GI50: > 100 µM (inactive)
[15]
  GI50: 5.25 µM (inactive)
[16]
  GI50: 15.6 µM (inactive)

## CCCC(=O)Oc1ccc(/C=N/NC(N)=S)nc1
[1]
  GI50: > 100 µM (inactive)
[2]
  GI50: > 100 µM (inactive)
[3]
  GI50: > 100 µM (inactive)
[4]
  GI50: 46.8 µM (inactive)
[5]
  GI50: > 100 µM (inactive)
[6]
  GI50: 25.5 µM (inactive)
[7]
  GI50: > 100 µM (inactive)
[8]
  GI50: > 100 µM (inactive)
[9]
  GI50: 69 µM (inactive)
[10]
  GI50: > 100 µM (inactive)
[11]
  GI50: > 100 µM (inactive)
[12]
  GI50: > 100 µM (inactive)
[13]
  GI50: 30 µM (inactive)
[14]
  GI50: 60.1 µM (inactive)
[15]
  GI50: > 100 µM (inactive)
[16]
  GI50: 41.8 µM (inactive)

## CCn1c(C)nc([N+](=O)[O-])c1Sc1ncc[nH]1
[1]
  GI50: 27.9 µM (inactive)
[2]
  GI50: 31.4 µM (inactive)
[3]
  GI50: 50.6 µM (inactive)
[4]
  GI50: 16.7 µM (inactive)
[5]
  GI50: > 100 µM (inactive)
[6]
  GI50: 19.8 µM (inactive)
[7]
  GI50: 64.4 µM (inactive)
[8]
  GI50: 37 µM (inactive)
[9]
  GI50: 15.6 µM (inactive)
[10]
  GI50: 68.1 µM (inactive)
[11]
  GI50: 57.1 µM (inactive)
[12]
  GI50: 74.8 µM (inactive)
[13]
  GI50: 23.3 µM (inactive)
[14]
  GI50: 30.5 µM (inactive)
[15]
  GI50: 26.1 µM (inactive)
[16]
  GI50: 46.1 µM (inactive)

## CN(C)/N=N/c1ccccc1
[1]
  GI50: > 100 µM (inactive)
[2]
  GI50: > 100 µM (inactive)
[3]
  GI50: > 100 µM (inactive)
[4]
  GI50: > 100 µM (inactive)
[5]
  GI50: 1.35 µM (inactive)
[6]
  GI50: 22 µM (inactive)
[7]
  GI50: > 100 µM (inactive)
[8]
  GI50: > 100 µM (inactive)
[9]
  GI50: 21.7 µM (inactive)
[10]
  GI50: > 100 µM (inactive)
[11]
  GI50: > 100 µM (inactive)
[12]
  GI50: > 100 µM (inactive)
[13]
  GI50: > 100 µM (inactive)
[14]
  GI50: 26.8 µM (inactive)
[15]
  GI50: > 100 µM (inactive)
[16]
  GI50: > 100 µM (inactive)

## BrCc1ccc2ccc3ccc(CBr)nc3c2n1
[1]
  GI50: 1.92 µM (inactive)
[2]
  GI50: 2.53 µM (inactive)
[3]
  GI50: 1.32 µM (inactive)
[4]
  GI50: 1.65 µM (inactive)
[5]
  GI50: 10.4 µM (inactive)
[17]
  GI50: 1.62 µM (inactive)
[6]
  GI50: 0.995 µM (active)
[18]
  GI50: 1.86 µM (inactive)
[7]
  GI50: 3.5 µM (inactive)
[8]
  GI50: 2 µM (inactive)
[10]
  GI50: 3.55 µM (inactive)
[11]
  GI50: 1.77 µM (inactive)
[12]
  GI50: 1.72 µM (inactive)
[20]
  GI50: 1.42 µM (inactive)
[13]
  GI50: 1.87 µM (inactive)
[14]
  GI50: 2.12 µM (inactive)
[15]
  GI50: 1.75 µM (inactive)
[16]
  GI50: 4.73 µM (inactive)
